System: Increase in Intravesical Pressure Induced by Carbachol in Anesthetized Dog
Assay: Effect on the increase in intravesical pressure induced by carbachol in anesthetized dog
Format: in vivo
Details: 0.032 mg/kg intravenously, 30 minutes before carbachol (1.8 μg/kg); female Beagle dogs under halothane anesthesia
Experimental: Effect on the Increase in Intravesical Pressure Induced by Carbachol in Anesthetized Dog
Female Beagle dogs weighing 8.0-15.0 kg were fasted for 24 hours and maintained under halothane anesthesia. A 12 F Foley catheter was lubricated with water soluble jelly, inserted into the urethral orifice and advanced approximately 10 cm until the balloon tip was placed well inside the bladder. The balloon was then inflated with 5 ml of room air and catheter slowly withdrawn just part the first resistance that is felt at the bladder neck. Urine was completely drained out through the catheter, and 30 ml of biological saline was infused. The catheter was connected to pressure transducer, and intravesical pressure (IVP) was continuously recordered. The test compound was administered intravenously at 30 minutes before the administration of carbachol (1.8 μg/kg). Percent inhibition of IVP increase by test compound was calculated by dividing IVPa (IVP increase induced by carbachol after test compound administaration) by IVPb (IVP increase induced by carbachol just before test compound administration).

**Q.** With COc1ccc(Oc2ccc3c(c2)C[C@@H](NC[C@H](O)c2ccc(Cl)cc2)CC3)cc1C(=O)O.Cl [Test Compound (1), 5-[[(7S)-7-[[(2R)-2-(4-Chlorophenyl)-2-hydroxyethyl]-amino]-5,6,7,8-tetrahydro-2-naphthalenyl]oxy]-2-methoxybenzoic Acid Hydrochloride] as the compound, how does the “Percent inhibition of IVP increase” value read?
**A.** 54%

From patent US20050090669A1, “Aminoalcohol derivatives as beta-3 adrenergic receptor agonists” (priority 2002, published 2005)
